Reference: patent US12492188B2, “1H-benzo[D]imidazole derivatives as TLR9 inhibitors for the treatment of fibrosis” (BRISTOL-MYERS SQUIBB COMPANY, priority 2020, dated 2025)
Read-outs that look alike come from different tables or passages of the source.

Key:
Format in all cases: cell-based
human TLR9 = biological target: T1, human TLR9 (Homo sapiens, UniProt Q9NR96); experiment: TLR9 inhibition reporter assay (HEK-Blue cells, secreted embryonic alkaline phosphatase reporter)
T1 construct: host or cells: HEK-Blue cells (HEK293-derived reporter line)
T1 sequence (Q9NR96 26-1032): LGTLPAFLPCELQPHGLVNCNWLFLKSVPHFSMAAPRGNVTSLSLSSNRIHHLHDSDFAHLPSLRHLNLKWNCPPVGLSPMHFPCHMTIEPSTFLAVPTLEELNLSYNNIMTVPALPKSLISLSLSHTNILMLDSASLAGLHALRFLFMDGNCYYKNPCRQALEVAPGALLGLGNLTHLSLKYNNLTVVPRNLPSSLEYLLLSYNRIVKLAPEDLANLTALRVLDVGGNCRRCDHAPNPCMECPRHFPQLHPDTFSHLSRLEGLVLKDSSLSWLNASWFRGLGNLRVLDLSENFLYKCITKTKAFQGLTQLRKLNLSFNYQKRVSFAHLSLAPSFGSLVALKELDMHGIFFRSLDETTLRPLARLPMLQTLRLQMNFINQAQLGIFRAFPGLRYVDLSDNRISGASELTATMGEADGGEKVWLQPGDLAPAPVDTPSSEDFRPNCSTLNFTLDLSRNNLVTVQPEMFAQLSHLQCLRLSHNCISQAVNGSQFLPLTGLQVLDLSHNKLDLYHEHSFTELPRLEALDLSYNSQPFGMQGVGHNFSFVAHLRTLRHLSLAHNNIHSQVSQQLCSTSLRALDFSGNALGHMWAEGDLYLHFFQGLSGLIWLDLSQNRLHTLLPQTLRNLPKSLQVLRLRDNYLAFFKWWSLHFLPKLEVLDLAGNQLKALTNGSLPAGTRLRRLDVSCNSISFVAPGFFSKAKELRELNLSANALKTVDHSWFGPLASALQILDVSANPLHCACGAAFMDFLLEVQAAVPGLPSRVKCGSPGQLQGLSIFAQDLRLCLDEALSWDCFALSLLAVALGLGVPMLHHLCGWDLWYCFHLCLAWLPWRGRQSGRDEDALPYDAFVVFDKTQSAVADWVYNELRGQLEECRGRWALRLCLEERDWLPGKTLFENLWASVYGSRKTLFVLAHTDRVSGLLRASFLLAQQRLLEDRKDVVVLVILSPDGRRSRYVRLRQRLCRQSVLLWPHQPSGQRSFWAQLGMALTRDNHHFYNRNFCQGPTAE
Procedure, shortened: (§1)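 Agonist-driven SEAP output was measured in HEK-Blue reporter cells carrying human TLR7 (gardiquimod 7.5 μM), TLR8 (R848 15.9 μM) or TLR9 (ODN2006 5 nM). Compounds at 0.05 nM–50 μM final were added 30 min before stimulation at room temperature. After 22 h at 37 °C, percent inhibition was taken against agonist/DMSO wells and a reference inhibitor.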

human TLR7 = biological target: T2, human TLR7 (Homo sapiens, UniProt Q9NYK1); experiment: TLR7 inhibition reporter assay (HEK-Blue cells, secreted embryonic alkaline phosphatase reporter); details: HEK-Blue cells overexpressing human TLR7, stimulated with gardiquimod 7.5 μM; read-out: TLR 7 IC50
T2 construct: host or cells: HEK-Blue cells (HEK293-derived reporter line)
T2 sequence (Q9NYK1 27-1049): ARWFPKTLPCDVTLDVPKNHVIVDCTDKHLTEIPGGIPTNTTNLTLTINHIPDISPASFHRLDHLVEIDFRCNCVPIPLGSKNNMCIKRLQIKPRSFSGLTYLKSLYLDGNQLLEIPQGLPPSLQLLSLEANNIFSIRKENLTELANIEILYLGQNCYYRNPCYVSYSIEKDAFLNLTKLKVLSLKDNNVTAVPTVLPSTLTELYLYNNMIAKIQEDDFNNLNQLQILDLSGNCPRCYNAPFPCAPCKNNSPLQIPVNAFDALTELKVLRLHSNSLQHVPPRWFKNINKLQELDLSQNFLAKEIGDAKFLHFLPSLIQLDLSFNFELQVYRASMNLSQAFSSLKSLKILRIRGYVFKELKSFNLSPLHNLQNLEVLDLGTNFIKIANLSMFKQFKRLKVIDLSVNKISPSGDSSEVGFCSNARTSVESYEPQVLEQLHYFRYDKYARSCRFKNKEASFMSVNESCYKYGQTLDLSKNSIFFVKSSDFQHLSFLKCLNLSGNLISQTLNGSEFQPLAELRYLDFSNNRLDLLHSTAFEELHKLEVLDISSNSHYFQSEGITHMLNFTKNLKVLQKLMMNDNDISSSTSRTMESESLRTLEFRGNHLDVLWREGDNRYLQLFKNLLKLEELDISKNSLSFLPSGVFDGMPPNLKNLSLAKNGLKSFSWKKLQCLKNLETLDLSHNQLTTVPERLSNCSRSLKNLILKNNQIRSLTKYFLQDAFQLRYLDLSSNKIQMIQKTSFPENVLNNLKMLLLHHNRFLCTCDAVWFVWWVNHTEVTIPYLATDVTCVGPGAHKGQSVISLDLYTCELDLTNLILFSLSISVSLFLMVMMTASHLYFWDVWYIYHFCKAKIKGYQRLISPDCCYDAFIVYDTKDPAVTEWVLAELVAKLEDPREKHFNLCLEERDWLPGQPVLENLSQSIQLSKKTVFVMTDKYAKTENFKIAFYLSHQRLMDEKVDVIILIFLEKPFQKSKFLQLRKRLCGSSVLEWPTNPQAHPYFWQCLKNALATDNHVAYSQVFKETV
Procedure, shortened: as §1

human TLR8 = biological target: T3, human TLR8 (Homo sapiens, UniProt Q9NR97); experiment: TLR8 inhibition reporter assay (HEK-Blue cells, secreted embryonic alkaline phosphatase reporter); details: HEK-Blue cells overexpressing human TLR8, stimulated with R848 15.9 μM; read-out: TLR 8 IC50
T3 construct: host or cells: HEK-Blue cells (HEK293-derived reporter line)
T3 sequence (Q9NR97 27-1041): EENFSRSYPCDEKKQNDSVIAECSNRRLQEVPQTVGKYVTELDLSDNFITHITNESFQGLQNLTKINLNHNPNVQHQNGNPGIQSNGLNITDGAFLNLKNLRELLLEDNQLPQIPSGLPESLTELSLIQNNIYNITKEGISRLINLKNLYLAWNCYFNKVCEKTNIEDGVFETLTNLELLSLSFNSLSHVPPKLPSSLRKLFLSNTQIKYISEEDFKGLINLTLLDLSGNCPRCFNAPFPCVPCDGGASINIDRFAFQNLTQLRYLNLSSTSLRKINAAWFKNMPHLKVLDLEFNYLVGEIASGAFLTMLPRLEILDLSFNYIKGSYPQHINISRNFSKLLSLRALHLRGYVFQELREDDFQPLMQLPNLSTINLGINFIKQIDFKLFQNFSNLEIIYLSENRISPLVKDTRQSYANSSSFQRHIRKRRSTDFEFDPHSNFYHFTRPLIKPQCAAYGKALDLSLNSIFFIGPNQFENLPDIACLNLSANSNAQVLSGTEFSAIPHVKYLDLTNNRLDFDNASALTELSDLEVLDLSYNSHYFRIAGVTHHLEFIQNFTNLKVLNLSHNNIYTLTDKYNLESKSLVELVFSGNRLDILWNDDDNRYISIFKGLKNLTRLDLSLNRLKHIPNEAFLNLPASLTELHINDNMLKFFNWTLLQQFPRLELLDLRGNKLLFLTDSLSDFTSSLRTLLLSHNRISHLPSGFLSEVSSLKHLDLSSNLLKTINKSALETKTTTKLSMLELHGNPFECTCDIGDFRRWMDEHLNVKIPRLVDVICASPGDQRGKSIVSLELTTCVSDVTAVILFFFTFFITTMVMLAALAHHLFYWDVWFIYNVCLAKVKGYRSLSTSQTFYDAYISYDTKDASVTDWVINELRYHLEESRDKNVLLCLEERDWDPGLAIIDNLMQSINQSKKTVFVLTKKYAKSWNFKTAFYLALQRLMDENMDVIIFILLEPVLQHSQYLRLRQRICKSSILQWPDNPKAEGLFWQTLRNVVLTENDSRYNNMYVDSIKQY
Procedure, shortened: as §1

[1] = HEK-Blue cells overexpressing human TLR9, stimulated with ODN2006 5 nM, 22 hour incubation, reporter readout
[2] = HEK-Blue cells overexpressing human TLR9, stimulated with ODN2006 5 nM, read-out: TLR 9 IC50

For Cc1cc(C2CCN(C3CCCN(C4CCC4)CC3)CC2)cc2c1nc(-c1ccc(S(C)(=O)=O)cc1)n2C (single isomer, unassigned) [Example 110, 6-(1-(1-cyclobutylazepan-4-yl)piperidin-4-yl)-1,4-dimethyl-2-(4-(methylsulfonyl)phenyl)-1H-benzo[d]imidazole], the IC50 (human TLR9; [1]) was 83 nM, the IC50 (human TLR7) was 1200 nM and the IC50 (human TLR8) was > 50000 nM.
With Cc1cc(C2CCN(C3CCCN(C4CCC4)CC3)CC2)cc2c1nc(-c1ccc(S(C)(=O)=O)cc1)n2C (single isomer, unassigned) [Example 111, 6-(1-(1-cyclobutylazepan-4-yl)piperidin-4-yl)-1,4-dimethyl-2-(4-(methylsulfonyl)phenyl)-1H-benzo[d]imidazole] the IC50 (human TLR9; [1]) was 24 nM, the IC50 (human TLR7) was 1500 nM and the IC50 (human TLR8) was > 50000 nM.
For CC(C)N1CCCC(N2CCC(c3ccc4nc(-c5ccc(S(C)(=O)=O)cc5)n(C)c4c3F)CC2)CC1 (single isomer, unassigned) [Example 113, 7-fluoro-6-(1-(1-isopropylazepan-4-yl)piperidin-4-yl)-1-methyl-2-(4-(methylsulfonyl)phenyl)-1H-benzo[d]imidazole], the IC50 (human TLR9; [1]) was 32 nM, the IC50 (human TLR7) was > 50000 nM and the IC50 (human TLR8) was > 50000 nM.
For CC(C)N1CCCC(N2CCC(c3ccc4nc(-c5ccc(S(C)(=O)=O)cc5)n(C)c4c3F)CC2)CC1 (single isomer, unassigned) [Example 114, 7-fluoro-6-(1-(1-isopropylazepan-4-yl)piperidin-4-yl)-1-methyl-2-(4-(methylsulfonyl)phenyl)-1H-benzo[d]imidazole], the IC50 (human TLR9; [1]) was 13 nM, the IC50 (human TLR7) was > 50000 nM and the IC50 (human TLR8) was 16700 nM.
For CC(C)N1C2CCC1CC(N1CCC(c3cc(F)c4nc(-c5ccc(S(C)(=O)=O)cc5)n(C5CC5)c4c3)CC1)C2 (single isomer, unassigned) [Example 116, 1-cyclopropyl-4-fluoro-6-(1-(8-isopropyl-8-azabicyclo[3.2.1]octan-3-yl)piperidin-4-yl)-2-(4-(methylsulfonyl)phenyl)-1H-benzo[d]imidazole], the IC50 (human TLR9; [1]) was 51 nM, the IC50 (human TLR7) was 3500 nM and the IC50 (human TLR8) was > 50000 nM.
For CC(C)N1C2CCC1CC(N1CCC(c3cc(F)c4nc(-c5ccc(S(C)(=O)=O)cc5)n(C5CC5)c4c3)CC1)C2 (single isomer, unassigned) [Example 117, 1-cyclopropyl-4-fluoro-6-(1-(8-isopropyl-8-azabicyclo[3.2.1]octan-3-yl)piperidin-4-yl)-2-(4-(methylsulfonyl)phenyl)-1H-benzo[d]imidazole], the IC50 (human TLR9; [1]) was 71 nM, the IC50 (human TLR7) was 2200 nM and the IC50 (human TLR8) was > 50000 nM.
For Cc1cc(C2CCN(C3CC4CCC(C3)N4C3CCC3)CC2)cc2c1nc(-c1ccc(S(C)(=O)=O)c(F)c1)n2C (single isomer, unassigned) [Example 124, 6-(1-(8-cyclobutyl-8-azabicyclo[3.2.1]octan-3-yl)piperidin-4-yl)-2-(3-fluoro-4-(methylsulfonyl)phenyl)-1,4-dimethyl-1H-benzo[d]imidazole], the IC50 (human TLR9; [1]) was 580 nM, the IC50 (human TLR9; [2]) was 577 nM and the IC50 (human TLR7) was 3100 nM. The IC50 (human TLR8) was > 50000 nM.
Cc1cc(C2CCN(C3CC4CCC(C3)N4C3CCC3)CC2)cc2c1nc(-c1ccc(S(C)(=O)=O)cc1)n2C (single isomer, unassigned) [Example 152, 6-(1-(8-cyclobutyl-8-azabicyclo[3.2.1]octan-3-yl)piperidin-4-yl)-1,4-dimethyl-2-(4-(methylsulfonyl)phenyl)-1H-benzo[d]imidazole] showed an IC50 (human TLR9) of 84 nM, an IC50 (human TLR9; [2]) of 84 nM and an IC50 (human TLR7) of 14700 nM. The IC50 (human TLR8) was > 25000 nM.
With Cc1cc(C2CCN(C3CC4CCC(C3)N4C3CCC3)CC2)cc2c1nc(-c1ccc(S(C)(=O)=O)cc1)n2C (single isomer, unassigned) [Example 153, 6-(1-(8-cyclobutyl-8-azabicyclo[3.2.1]octan-3-yl)piperidin-4-yl)-1,4-dimethyl-2-(4-(methylsulfonyl)phenyl)-1H-benzo[d]imidazole] the IC50 (human TLR9) was 120 nM, the IC50 (human TLR9; [2]) was 12.3 nM and the IC50 (human TLR7) was 14300 nM. For the same compound, the IC50 (human TLR8) was > 25000 nM.
With Cc1cc(C2CCN(C3CC4CCC(C3)N4CC3CC3)CC2)cc2c1nc(-c1ccc(S(C)(=O)=O)cc1)n2C (single isomer, unassigned) [Example 154, 6-(1-(8-(cyclopropylmethyl)-8-azabicyclo[3.2.1]octan-3-yl)piperidin-4-yl)-1,4-dimethyl-2-(4-(methylsulfonyl)phenyl)-1H-benzo[d]imidazole] the IC50 (human TLR9) was 30 nM, the IC50 (human TLR9; [2]) was 30 nM and the IC50 (human TLR7) was 9000 nM. The IC50 (human TLR8) was > 25000 nM.
With Cc1cc(C2CCN(C3CC4CCC(C3)N4CC3CCC3)CC2)cc2c1nc(-c1ccc(S(C)(=O)=O)cc1)n2C (single isomer, unassigned) [Example 156, 6-(1-(8-(cyclobutylmethyl)-8-azabicyclo[3.2.1]octan-3-yl)piperidin-4-yl)-1,4-dimethyl-2-(4-(methylsulfonyl)phenyl)-1H-benzo[d]imidazole] the IC50 (human TLR9) was 31 nM, the IC50 (human TLR9; [2]) was 31 nM and the IC50 (human TLR7) was 8900 nM. For the same compound, the IC50 (human TLR8) was > 25000 nM.
